# Experimental data reported in ChEMBL document CHEMBL1201862, “PubChem BioAssay data set” (2004).
# Calls of active or inactive are those of the source.
# Legend:
# [1] = target: T1, Type-1 angiotensin II receptor (Homo sapiens, UniProt P30556); test: antagonism of angiotensin II type 1 receptor – cell-based, uHTS hits, selectivity assay for APJ receptor antagonist project, dose response (AID 463214); assay type: functional;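 further: antagonist potency against angiotensin II stimulated AT1 response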
# T1 sequence (P30556 whole entry): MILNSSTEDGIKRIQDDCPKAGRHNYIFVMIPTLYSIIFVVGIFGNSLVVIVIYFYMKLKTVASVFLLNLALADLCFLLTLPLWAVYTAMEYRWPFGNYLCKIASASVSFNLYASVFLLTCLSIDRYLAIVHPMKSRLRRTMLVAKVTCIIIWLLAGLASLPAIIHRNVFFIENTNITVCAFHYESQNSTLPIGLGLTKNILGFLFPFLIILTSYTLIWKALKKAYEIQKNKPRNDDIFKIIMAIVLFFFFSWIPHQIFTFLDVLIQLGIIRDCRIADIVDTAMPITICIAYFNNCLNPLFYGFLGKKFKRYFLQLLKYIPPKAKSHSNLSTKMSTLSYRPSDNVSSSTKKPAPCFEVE
# Beta-galactosidase = Beta-galactosidase (Escherichia coli, UniProt Q8VNN2); test: PubChem AID 485352; assay type: functional
# [2] = target: T2, Nuclear receptor subfamily 0 group B member 1 (Homo sapiens, UniProt P51843); test: Luminescence-based cell-based high throughput dose response assay for inhibitors of the orphan nuclear receptor subfamily 0, group B, member 1 (DAX1; NR0B1). [Related pubchem assays (depositor defined):AID504766, AID504790]; assay type: functional
# T2 sequence (P51843 whole entry): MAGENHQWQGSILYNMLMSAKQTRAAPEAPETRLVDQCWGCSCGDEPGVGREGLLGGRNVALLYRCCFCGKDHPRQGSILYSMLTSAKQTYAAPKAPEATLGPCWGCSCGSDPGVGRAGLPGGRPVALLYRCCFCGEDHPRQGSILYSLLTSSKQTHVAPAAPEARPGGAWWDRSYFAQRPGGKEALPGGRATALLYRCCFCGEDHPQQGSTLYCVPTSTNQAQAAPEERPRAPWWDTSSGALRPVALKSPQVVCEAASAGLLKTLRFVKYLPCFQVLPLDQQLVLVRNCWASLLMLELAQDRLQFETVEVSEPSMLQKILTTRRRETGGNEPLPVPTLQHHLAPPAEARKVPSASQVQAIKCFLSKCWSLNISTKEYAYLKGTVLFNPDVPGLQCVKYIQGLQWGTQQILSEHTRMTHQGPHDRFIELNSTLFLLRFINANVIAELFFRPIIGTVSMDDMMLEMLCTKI
# HEK293 = test: cells; assay type: functional, cell-based; conditions: Homo sapiens
# [3] = target: T3, Endoribonuclease toxin MazF (Escherichia coli K-12, UniProt P0AE70); test: activation of MazEF endoribonuclease cleavage – biochemical, fluorescence, single-stranded RNA substrate, uHTS hits, dose response (AID 588481); assay type: functional
# T3 sequence (P0AE70 whole entry): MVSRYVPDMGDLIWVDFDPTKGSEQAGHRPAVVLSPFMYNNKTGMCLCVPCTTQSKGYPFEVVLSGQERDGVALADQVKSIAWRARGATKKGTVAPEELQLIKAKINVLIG
# [4] = target: T3, Endoribonuclease toxin MazF; test: substrate-only fluorescence increase artefacts – biochemical, single-stranded RNase substrate, counter-screen for MazEF activator project, dose response (AID 588502); assay type: functional
# Phospholipase A2 = Phospholipase A2 (Homo sapiens, UniProt P04054); assay type: functional;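 further: confirmatory dose-response counterscreen on phospholipase A2, testing hits that came from an ultra-high-throughput screen for ATG4B inhibitors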
# Cysteine protease ATG4B = target: T4, Cysteine protease ATG4B (Homo sapiens, UniProt Q9Y4P1); assay type: functional;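 further: Fluorescence-based dose-response confirmation assay measuring inhibition of ATG4B activity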
# T4 sequence (Q9Y4P1 whole entry): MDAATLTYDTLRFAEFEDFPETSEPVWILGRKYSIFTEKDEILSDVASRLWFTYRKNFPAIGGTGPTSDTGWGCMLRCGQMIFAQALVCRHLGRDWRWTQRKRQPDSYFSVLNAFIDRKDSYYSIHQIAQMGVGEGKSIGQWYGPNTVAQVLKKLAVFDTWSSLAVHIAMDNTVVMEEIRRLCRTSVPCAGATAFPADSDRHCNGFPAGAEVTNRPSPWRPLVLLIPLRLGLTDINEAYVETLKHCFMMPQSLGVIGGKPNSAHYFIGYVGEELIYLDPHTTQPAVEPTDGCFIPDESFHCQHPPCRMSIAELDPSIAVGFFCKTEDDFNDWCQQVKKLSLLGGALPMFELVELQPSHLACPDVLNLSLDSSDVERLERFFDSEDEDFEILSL
# HeLa = test: ATP-based viability loss in HeLa cells – cell-based, CellTiter-Glo luminescence, cherry-pick samples, cytotoxicity control for MITF activator project, dose response (AID 540259); assay type: functional; conditions: Homo sapiens
# [5] = target: T5, Sentrin-specific protease 7 (Homo sapiens, UniProt Q9BQF6); assay type: functional;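 further: Luminescence-based dose-response confirmation of ultra-high-throughput screening hits, measuring inhibition of SENP7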
# T5 sequence (Q9BQF6 whole entry): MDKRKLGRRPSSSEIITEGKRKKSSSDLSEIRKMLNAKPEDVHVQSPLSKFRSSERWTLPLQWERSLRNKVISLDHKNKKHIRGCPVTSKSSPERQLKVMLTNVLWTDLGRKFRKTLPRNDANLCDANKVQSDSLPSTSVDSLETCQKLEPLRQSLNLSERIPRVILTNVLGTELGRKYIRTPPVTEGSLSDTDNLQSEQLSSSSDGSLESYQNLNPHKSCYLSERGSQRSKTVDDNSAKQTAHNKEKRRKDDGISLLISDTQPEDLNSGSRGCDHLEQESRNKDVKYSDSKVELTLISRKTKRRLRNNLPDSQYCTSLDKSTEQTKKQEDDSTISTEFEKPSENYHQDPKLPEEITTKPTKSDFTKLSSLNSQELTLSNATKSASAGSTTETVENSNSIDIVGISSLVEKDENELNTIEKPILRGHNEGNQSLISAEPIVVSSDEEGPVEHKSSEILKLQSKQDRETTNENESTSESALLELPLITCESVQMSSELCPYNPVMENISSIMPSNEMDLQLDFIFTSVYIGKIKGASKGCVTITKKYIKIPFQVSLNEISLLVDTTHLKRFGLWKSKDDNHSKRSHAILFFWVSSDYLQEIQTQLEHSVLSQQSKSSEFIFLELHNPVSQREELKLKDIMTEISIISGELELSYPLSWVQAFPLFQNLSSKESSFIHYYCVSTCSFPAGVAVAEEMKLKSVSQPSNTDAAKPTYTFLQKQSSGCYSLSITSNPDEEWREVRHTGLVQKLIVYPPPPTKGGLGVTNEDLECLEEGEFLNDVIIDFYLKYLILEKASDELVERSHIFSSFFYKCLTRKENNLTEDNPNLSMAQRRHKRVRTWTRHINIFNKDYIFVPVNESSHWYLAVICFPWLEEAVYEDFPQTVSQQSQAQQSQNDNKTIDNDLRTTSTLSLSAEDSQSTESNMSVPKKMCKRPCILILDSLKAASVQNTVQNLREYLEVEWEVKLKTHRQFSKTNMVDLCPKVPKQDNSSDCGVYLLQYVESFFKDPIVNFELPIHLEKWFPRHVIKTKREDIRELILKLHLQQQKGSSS
# [6] = target: T6, Sentrin-specific protease 8 (Homo sapiens, UniProt Q96LD8); assay type: functional;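 further: luminescence read-out of SENP8 inhibition, dose-response confirmation following an ultra-high-throughput screen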
# T6 sequence (Q96LD8 whole entry): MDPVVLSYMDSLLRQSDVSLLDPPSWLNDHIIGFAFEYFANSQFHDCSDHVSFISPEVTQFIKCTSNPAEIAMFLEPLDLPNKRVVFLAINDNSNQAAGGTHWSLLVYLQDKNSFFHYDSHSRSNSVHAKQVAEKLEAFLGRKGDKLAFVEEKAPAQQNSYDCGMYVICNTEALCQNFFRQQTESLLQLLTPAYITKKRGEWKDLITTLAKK
# Caspase-3 = target: T7, Caspase-3 (Homo sapiens, UniProt P42574); assay type: functional;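 further: Dose-response selectivity test against caspase-3 for candidate inhibitors of sentrin-specific proteases (SENPs)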
# T7 sequence (P42574 whole entry): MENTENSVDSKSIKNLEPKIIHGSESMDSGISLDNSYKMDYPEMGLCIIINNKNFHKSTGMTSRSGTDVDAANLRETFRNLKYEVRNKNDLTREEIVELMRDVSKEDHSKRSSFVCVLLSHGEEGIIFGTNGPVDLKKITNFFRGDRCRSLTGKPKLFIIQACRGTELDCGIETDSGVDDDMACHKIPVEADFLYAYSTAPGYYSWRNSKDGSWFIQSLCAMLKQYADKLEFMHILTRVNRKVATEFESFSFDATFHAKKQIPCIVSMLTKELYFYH
# [7] = target: T8, Sentrin-specific protease 6 (Homo sapiens, UniProt Q9GZR1); assay type: functional;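 further: Luminescence-based dose-response confirmatory assay of SENP6 inhibition, following up an ultra-high-throughput screen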
# T8 sequence (Q9GZR1 whole entry): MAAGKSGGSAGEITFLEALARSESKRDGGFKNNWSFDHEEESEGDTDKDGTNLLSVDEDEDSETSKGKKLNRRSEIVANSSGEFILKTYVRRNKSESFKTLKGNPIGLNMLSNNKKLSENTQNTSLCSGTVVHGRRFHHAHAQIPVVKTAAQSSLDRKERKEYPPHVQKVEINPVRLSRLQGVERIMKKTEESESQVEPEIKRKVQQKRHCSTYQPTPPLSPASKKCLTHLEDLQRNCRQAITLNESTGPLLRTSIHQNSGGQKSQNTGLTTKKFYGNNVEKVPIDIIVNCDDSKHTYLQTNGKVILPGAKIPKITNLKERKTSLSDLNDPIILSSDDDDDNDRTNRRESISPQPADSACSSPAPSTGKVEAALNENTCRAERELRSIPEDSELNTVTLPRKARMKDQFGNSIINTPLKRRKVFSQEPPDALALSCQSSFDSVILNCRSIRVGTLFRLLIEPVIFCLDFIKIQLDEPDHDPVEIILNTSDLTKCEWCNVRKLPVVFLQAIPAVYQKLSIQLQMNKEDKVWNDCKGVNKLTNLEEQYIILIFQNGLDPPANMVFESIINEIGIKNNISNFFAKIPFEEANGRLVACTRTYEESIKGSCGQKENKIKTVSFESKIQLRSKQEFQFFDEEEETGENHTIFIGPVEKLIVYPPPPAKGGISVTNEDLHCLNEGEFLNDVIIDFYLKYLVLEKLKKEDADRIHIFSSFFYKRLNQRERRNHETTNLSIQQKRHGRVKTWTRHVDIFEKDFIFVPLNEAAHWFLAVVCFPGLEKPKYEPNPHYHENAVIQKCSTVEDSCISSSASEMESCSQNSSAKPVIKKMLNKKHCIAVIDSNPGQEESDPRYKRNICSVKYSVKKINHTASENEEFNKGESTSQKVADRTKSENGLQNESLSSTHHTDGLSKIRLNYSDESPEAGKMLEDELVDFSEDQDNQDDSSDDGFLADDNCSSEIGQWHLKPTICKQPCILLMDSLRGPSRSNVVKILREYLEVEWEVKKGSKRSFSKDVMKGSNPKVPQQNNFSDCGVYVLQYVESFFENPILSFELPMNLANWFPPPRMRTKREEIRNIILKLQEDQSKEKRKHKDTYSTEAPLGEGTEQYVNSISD
# Cytochrome P450 2D6 = Cytochrome P450 2D6 (Homo sapiens, UniProt P10635);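 further: CYP2D6 member of a cytochrome P450 panel assay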
# Cytochrome P450 3A4 = Cytochrome P450 3A4 (Homo sapiens, UniProt P08684);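 further: CYP3A4 tested as one member of a cytochrome P450 panel screen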
# Cytochrome P450 3A4, sequence (P08684 whole entry): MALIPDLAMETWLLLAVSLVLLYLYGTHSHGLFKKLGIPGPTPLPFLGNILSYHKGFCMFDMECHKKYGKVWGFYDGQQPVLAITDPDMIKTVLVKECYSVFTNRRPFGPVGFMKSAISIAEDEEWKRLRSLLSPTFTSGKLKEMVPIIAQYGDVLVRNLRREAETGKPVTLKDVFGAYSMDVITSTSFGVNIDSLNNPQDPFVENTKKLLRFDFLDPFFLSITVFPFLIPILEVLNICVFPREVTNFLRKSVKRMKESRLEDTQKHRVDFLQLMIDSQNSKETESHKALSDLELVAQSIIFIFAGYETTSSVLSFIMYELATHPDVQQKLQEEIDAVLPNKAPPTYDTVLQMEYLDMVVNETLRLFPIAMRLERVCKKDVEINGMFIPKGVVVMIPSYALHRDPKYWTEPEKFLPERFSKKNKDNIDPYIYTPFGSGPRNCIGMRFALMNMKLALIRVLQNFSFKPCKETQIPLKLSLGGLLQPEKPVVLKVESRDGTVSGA
# Beta-galactosidase, sequence (Q8VNN2 whole entry): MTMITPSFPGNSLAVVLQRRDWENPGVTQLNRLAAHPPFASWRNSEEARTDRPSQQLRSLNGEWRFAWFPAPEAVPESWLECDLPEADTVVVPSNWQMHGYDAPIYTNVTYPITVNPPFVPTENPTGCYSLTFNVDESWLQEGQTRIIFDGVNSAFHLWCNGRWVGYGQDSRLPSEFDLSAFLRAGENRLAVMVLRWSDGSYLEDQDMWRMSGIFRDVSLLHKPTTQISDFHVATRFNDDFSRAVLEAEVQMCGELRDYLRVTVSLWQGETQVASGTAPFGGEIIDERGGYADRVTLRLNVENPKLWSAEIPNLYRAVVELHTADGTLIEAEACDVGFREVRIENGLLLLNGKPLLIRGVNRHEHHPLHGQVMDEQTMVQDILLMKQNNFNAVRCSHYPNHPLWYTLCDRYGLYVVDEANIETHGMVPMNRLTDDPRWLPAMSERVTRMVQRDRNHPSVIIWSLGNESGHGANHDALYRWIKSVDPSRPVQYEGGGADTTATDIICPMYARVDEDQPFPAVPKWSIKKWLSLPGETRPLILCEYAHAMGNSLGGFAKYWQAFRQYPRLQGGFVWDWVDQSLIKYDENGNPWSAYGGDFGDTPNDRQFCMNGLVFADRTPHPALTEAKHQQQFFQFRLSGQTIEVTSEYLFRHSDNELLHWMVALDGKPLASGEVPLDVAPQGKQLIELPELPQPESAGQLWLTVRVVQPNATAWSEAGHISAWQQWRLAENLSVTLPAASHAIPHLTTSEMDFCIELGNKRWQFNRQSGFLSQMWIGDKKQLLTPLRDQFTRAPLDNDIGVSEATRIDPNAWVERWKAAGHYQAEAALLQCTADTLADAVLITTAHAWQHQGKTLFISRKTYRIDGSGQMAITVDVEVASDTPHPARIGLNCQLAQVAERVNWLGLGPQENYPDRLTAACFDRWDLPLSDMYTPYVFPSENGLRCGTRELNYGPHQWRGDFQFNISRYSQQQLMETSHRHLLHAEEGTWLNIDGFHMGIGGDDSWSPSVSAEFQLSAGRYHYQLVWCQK
# Phospholipase A2, sequence (P04054 whole entry): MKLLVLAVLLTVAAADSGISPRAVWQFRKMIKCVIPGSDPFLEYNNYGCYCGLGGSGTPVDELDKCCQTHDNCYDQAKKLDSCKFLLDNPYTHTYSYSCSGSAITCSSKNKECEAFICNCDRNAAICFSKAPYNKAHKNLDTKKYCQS
# Cytochrome P450 2D6, sequence (P10635 whole entry): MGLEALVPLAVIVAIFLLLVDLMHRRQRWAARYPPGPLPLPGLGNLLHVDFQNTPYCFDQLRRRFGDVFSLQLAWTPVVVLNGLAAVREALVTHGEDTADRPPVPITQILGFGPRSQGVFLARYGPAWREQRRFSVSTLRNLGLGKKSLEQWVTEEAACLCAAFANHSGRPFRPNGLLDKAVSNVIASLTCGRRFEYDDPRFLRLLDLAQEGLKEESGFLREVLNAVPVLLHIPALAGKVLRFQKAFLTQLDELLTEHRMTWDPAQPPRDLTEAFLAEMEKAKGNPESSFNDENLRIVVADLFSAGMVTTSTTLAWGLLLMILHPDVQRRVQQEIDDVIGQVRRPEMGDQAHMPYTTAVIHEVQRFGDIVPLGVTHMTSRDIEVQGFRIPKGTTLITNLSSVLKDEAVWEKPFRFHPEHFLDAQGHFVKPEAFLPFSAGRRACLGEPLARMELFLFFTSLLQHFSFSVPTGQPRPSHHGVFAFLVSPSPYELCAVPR
structure (smiles),measurement,setting,value
FC(F)(F)c1cnc(NNC(=S)Nc2cccnc2)c(Cl)c1,IC50,[1],15.1 µM (active)
same,EC50,Beta-galactosidase,> 40 µM (inactive)
Cc1noc(C)c1S(=O)(=O)N1CCN(S(=O)(=O)c2ccccc2C#N)CC1,IC50,[2],> 67.5 µM (inactive)
same,IC50,HEK293,> 67.5 µM (inactive)
O=C(COC(=O)c1cnccn1)c1ccc(Cl)c([N+](=O)[O-])c1,IC50,[1],12.5 µM (active)
same,EC50,Beta-galactosidase,> 40 µM (inactive)
COc1ccc(C)cc1Nc1n[n+](-c2ccccc2)c(-c2cc([N+](=O)[O-])cc(OC)c2O)s1,EC50,[3],23.5 µM (inactive)
same,EC50,[4],58.4 µM (inactive)
Cc1ccc(C(=O)NN=C(S)Nc2cccc(Cl)c2Cl)cc1[N+](=O)[O-],IC50,Phospholipase A2,13.3 µM (active)
same,IC50,Cysteine protease ATG4B,20.8 µM (inactive)
Cc1ccc(C(=O)COC(=O)CNC(=O)c2ccc(Br)o2)cc1[N+](=O)[O-],IC50,[1],> 40 µM (not active)
same,EC50,Beta-galactosidase,> 40 µM (inactive)
Cc1ccc(C)c(NC(=O)c2cc(-c3cc(C)ccc3O)[nH]n2)c1,AC50,HeLa,41.9 µM (active)
same,IC50,[5],5.17 µM (active)
same,IC50,[6],> 100 µM (inactive)
same,IC50,Caspase-3,22.3 µM (active)
same,IC50,[7],> 100 µM (inactive)
CCC(C)N(C(=O)COc1ccc(Br)cc1C=O)C1CCS(=O)(=O)C1 (stereo not given),IC50,Phospholipase A2,8.26 µM (active)
same,IC50,Cysteine protease ATG4B,10.1 µM (active)
Cc1cc(C)c(NC(=O)C2CCCN2C)c(C)c1 (stereo not given),AC50,Cytochrome P450 2D6,28.2 µM (inconclusive)
same,AC50,Cytochrome P450 3A4,25.1 µM (inconclusive)
same,IC50,[2],> 67.3 µM (inactive)
same,IC50,HEK293,> 67.3 µM (inactive)
CCCC(=O)NC(=S)Nc1cccc(Cl)c1N1CCCCC1,IC50,Phospholipase A2,6.52 µM (active)
same,IC50,Cysteine protease ATG4B,9.11 µM (active)
